Source: article PMC10622577, “Structural basis for stabilisation of the RAD51 nucleoprotein filament by BRCA2” (Nature Communications, 2023)

Tests used:
[1] = system: RAD51 NPFs on mSA-capped DNA; test: cryo-electron micrographs, bundling of RAD51 NPFs on mSA-capped DNA; design: species or system human; details: 1:0.5 molar ratio of TR2 peptide and mSA; ss- and dsDNA; two independent repeats
From the text: To understand the structural basis for the association of the BRCA2 C-terminus with the RAD51 nucleoprotein filament, we sought to determine the structure of a RAD51-DNA-TR2 filament by high-resolution cryo-electron microscopy (cryoEM). […] Individual filaments within a bundle appeared to be in translational register relative to each other as it was possible to obtain well-resolved 2D classes of filament pairs (Supplementary fig. 5A, Supplementary Table 1). Filament aggregation induced by TR2 complicated picking of individual filament particles and prevented structural determination by cryoEM. We therefore sought to develop a method to prepare RAD51 NPFs in the presence of TR2 peptide without causing filament bundling. We reasoned that bundling might be alleviated by capping the DNA substrate with a bulky tag, to prevent filament aggregation by steric interference. We therefore prepared ss- and dsDNA substrates with a biotin tag at either one end or both ends, that could be bound by monomeric streptavidin (mSA) (Supplementary Fig. 5B, Supplementary Table 1).
Fig. 2 BRCA2 TR2 induces bundling of RAD51 nucleoprotein filaments. A Cryo-electron micrographs of RAD51 NPFs formed on ssDNA and dsDNA in the presence of 1:0.5 molar ratio of TR2 peptide. Extensive NPF aggregation into bundles of aligned filaments is clearly visible (examples marked with dashed white boxes). Two independent repeats. […]

[2] = system: RAD51 D184A NPFs; test: SPR of TR2 binding to RAD51 D184A NPFs; design: species or system human; details: n = 3
Experimental: We investigated further the effect of the acidic patch mutations on TR2 binding using surface plasmon resonance (SPR). We developed an SPR assay whereby increasing amounts of TR2 peptide were added to RAD51 NPFs that had been assembled on biotinylated DNA coupled to a streptavidin chip (Supplementary Fig. 3A, Supplementary Table 1). […] We used the same SPR assay to assess the effect of the mutations on the ability of BRC4 to disrupt an established filament (Supplementary Fig. 4A, Supplementary Table 1).
All SPR experiments were performed using a Biacore T200 instrument and an S-series SA (Streptavidin) sensor chip. A single chip was used to immobilise biotinylated single- and double-stranded DNA in buffer: 25 mM HEPES pH 7.4, 100 mM NaCl, 1 mM EDTA. ssDNA and dsDNA were immobilised in different channels to a signal of 120 RU and 250 RU, respectively. […]
For the BRCA2 TR2 titration series, blank-subtracted sensorgrams were used to extract the maximum response accumulated after each TR2 injection. TR2 response accumulation was corrected to account for differences in RAD51 filament formation between runs, by multiplying the maximum response by a scale factor calculated as the ratio between mean RAD51 filament accumulation on each DNA substrate and the mean RAD51 accumulated for each mutant for each triplicate. […]

DDQKNCKKRRALDFLSRLPLPPPVSPICTFVSPAAQKAFQPPRSCGTKY [TR2, BRCA2 TR2 peptide spanning amino acids 3260 to 3308]
bundling of RAD51 NPFs on mSA-capped DNA [1]: no bundling in the presence of TR2 | TR2 binding by SPR relative to wild-type ([2]; Biacore T200, streptavidin chip, biotinylated ss- or dsDNA, CMA buffer pH 7.4, 1 μM RAD51, TR2 0.1-15 μM, 120 s): clear reduction in TR2 binding | impact of mutation on TR2 binding by SPR, ssDNA versus dsDNA ([2]; ssDNA compared with dsDNA): stronger for NPFs formed on ssDNA
